# From patent publication US11180657B2, “Polysulfonated fluorescence dyes” (ATTO-TEC GmbH, priority 2017, dated 2021)
# Marks after values point to notes of the source that are not given here.
# Assays:
# [1] = Absorption maximum of the dye; type: physicochemical
# Excerpt: (§1) Examples of the compounds according to the invention are listed in Tables 2-6, where the structures as well as the absorption and fluorescence maxima are indicated. The spectra of selected compounds are shown FIGS. 5-18.
# [2] = Fluorescence maximum of the dye; type: physicochemical
# Excerpt: as §1
SMILES,λabs ([1]; solvent water/acetonitrile 1:1),λfl ([2]; solvent PBS pH 7.4),λabs ([1]; solvent PBS pH 7.4),λabs ([1]; solvent ethanol) [nm],λfl ([2]; solvent ethanol) [nm]
CN(CCCC(=O)O)C(=O)c1ccccc1-c1c2cc/c(=N/CCc3ccc(S(=O)(=O)O)cc3S(=O)(=O)O)cc-2oc2cc(NCCc3ccc(S(=O)(=O)O)cc3S(=O)(=O)O)ccc12 [Compound 24],539^c nm,561^b nm,,,
CN(CCCC(=O)O)C(=O)c1ccccc1-c1c2cc(S(=O)(=O)O)/c(=N/CCc3ccc(S(=O)(=O)O)cc3)cc-2oc2cc(NCCc3ccc(S(=O)(=O)O)cc3)ccc12 [Compound 22],536^c nm,558^b nm,,,
CC1(C)C=C(CS(=O)(=O)O)c2cc3c(cc2N1CCCC(=O)O)[Si](C)(C)c1cc2c(cc1=C3)C(CS(=O)(=O)O)=CC(C)(C)[N+]=2CS(=O)(=O)O [Compound 91],,738^b nm,715^b nm,,
CC1(C)C=C(CS(=O)(=O)O)c2cc3c(cc2N1)C(C)(C)c1cc2c(cc1=C3c1c(F)c(F)c(SCC(=O)O)c(F)c1F)C(CS(=O)(=O)O)=CC(C)(C)[N+]=2Cc1ccc(S(=O)(=O)O)cc1 [Compound 44],,707^b nm,687^b nm,,
CN(CCCC(=O)O)C(=O)c1ccccc1C1=C2C=C/C(=[N+](\C)Cc3ccc(S(=O)(=O)O)cc3S(=O)(=O)O)C=C2[Si](C)(C)c2cc(N(C)Cc3ccc(S(=O)(=O)O)cc3S(=O)(=O)O)ccc21 [Compound 69],,680^b nm,658^b nm,,
CN(CCCC(=O)O)C(=O)c1ccccc1-c1c2cc/c(=N/Cc3ccc(S(=O)(=O)O)cc3S(=O)(=O)O)cc-2oc2cc(NCc3ccc(S(=O)(=O)O)cc3S(=O)(=O)O)ccc12 [Compound 13],534^c nm,555^b nm,,,
CC1(C)C=C(CS(=O)(=O)O)c2cc3c(cc2N1CCCC(=O)O)[Si](C)(C)c1cc2c(cc1=C3C#N)C(CS(=O)(=O)O)=CC(C)(C)[N+]=2CCS(=O)(=O)O [Compound 92],,841^b nm,817^b nm,,
CC1(C)c2cc3c(cc2C(c2c(Cl)cccc2Cl)=c2cc4c(cc21)=[N+](Cc1ccc(S(=O)(=O)O)cc1S(=O)(=O)O)C(C)(C)CC4CS(=O)(=O)O)CCCN3CCCC(=O)O (stereo not drawn) [Compound 53],,677^b nm,654^b nm,,
O=C(O)c1ccccc1-c1c2cc/c(=N/CS(=O)(=O)O)c(S(=O)(=O)O)c-2oc2c(S(=O)(=O)O)c(NCS(=O)(=O)O)ccc12 [Compound 1],533^c nm,554^b nm,,,
CN(C)c1ccc2c(c1)C(C)(C)c1cc3c(cc1=C2)CCC[N+]=3Cc1ccc(S(=O)(=O)O)cc1S(=O)(=O)O [Compound 76],,622^b nm,596^b nm,,
Cn1cc[n+](CCCCS(=O)(=O)O)c1C1=c2cc3c(cc2C(C)(C)c2cc4c(cc21)C(CS(=O)(=O)O)=CC(C)(C)N4CCCC(=O)O)=[N+](Cc1ccc(S(=O)(=O)O)cc1S(=O)(=O)O)CCC3 [Compound 57],,749^b nm,725^b nm,,
CN(C)c1ccc2c(c1)C(C)(C)c1cc3c(cc1=C2NCCCCCC(=O)O)CCC[N+]=3Cc1ccc(S(=O)(=O)O)cc1S(=O)(=O)O [Compound 78],,609^b nm,463 nm,468,
CC1(C)c2cc3c(cc2C(c2c(F)c(F)c(SCCS(=O)(=O)O)c(F)c2F)=c2cc4c(cc21)=[N+](CCc1ccc(S(=O)(=O)O)cc1)C(C)(C)C=C4CS(=O)(=O)O)C(CS(=O)(=O)O)=CC(C)(C)N3CCCC(=O)O [Compound 45],,719^b nm,698^b nm,,
O=C(O)c1ccccc1-c1c2cc/c(=N/Cc3ccc(S(=O)(=O)O)cc3S(=O)(=O)O)cc-2oc2cc(NCc3ccc(S(=O)(=O)O)cc3S(=O)(=O)O)ccc12 [Compound 4],536^c nm,559^b nm,,,
CCN1c2cc3c(cc2C(CS(=O)(=O)O)CC1(C)C)C(c1ccccc1C(=O)N(C)CCCC(=O)O)=c1cc2c(cc1C3(C)C)=[N+](Cc1ccc(S(=O)(=O)O)cc1S(=O)(=O)O)C(C)(C)CC2CS(=O)(=O)O (stereo not drawn) [Compound 66],,665^b nm,645^b nm,,
CN(Cc1ccc(S(=O)(=O)O)cc1S(=O)(=O)O)c1ccc2c(c1)C(C)(C)C1=C/C(=[N+](/C)Cc3ccc(S(=O)(=O)O)cc3S(=O)(=O)O)C=CC1=C2c1c(F)c(F)c(SCC(=O)O)c(F)c1F [Compound 47],,666^b nm,645^b nm,,
CCN(Cc1ccc(S(=O)(=O)O)cc1S(=O)(=O)O)c1ccc2c(-c3ccccc3C(=O)N(C)CCCC(=O)O)c3cc/c(=[N+](\CC)Cc4ccc(S(=O)(=O)O)cc4S(=O)(=O)O)cc-3oc2c1 [Compound 5],560^c nm,584^b nm,,,

SMILES,λabs ([1]; solvent water/acetonitrile 1:1),λfl ([2]; solvent PBS pH 7.4),λabs ([1]; solvent PBS pH 7.4),λabs ([1]; solvent ethanol) [nm],λfl ([2]; solvent ethanol) [nm]
Cn1cc[n+](CCCC(=O)O)c1C1=c2cc3c(cc2[Si](C)(C)c2cc4c(cc21)C(CS(=O)(=O)O)CC(C)(C)N4Cc1ccc(S(=O)(=O)O)cc1S(=O)(=O)O)=[N+](Cc1ccc(S(=O)(=O)O)cc1S(=O)(=O)O)C(C)(C)CC3CS(=O)(=O)O (stereo not drawn) [Compound 63],,776^b nm,752^b nm,,
C[Si]1(C)c2cc3c(cc2C(NCCCC(=O)O)=c2cc4c(cc21)=[N+](Cc1ccc(S(=O)(=O)O)cc1S(=O)(=O)O)CCC4)CCCN3Cc1ccc(S(=O)(=O)O)cc1S(=O)(=O)O [Compound 95],,661^b nm,489^b nm,,
CN(C)c1ccc2c(c1)C(C)(C)c1cc3c(cc1=C2c1c(F)c(F)c(SCC(=O)O)c(F)c1F)C(CS(=O)(=O)O)CC(C)(C)[N+]=3Cc1ccc(S(=O)(=O)O)cc1S(=O)(=O)O (stereo not drawn) [Compound 39],,693^b nm,673^b nm,,
CN(CCCC(=O)ON1C(=O)CCC1=O)C(=O)c1ccccc1-c1c2cc(S(=O)(=O)O)/c(=N/Cc3ccc(S(=O)(=O)O)cc3S(=O)(=O)O)cc-2oc2cc(NCc3ccc(S(=O)(=O)O)cc3S(=O)(=O)O)c(S(=O)(=O)O)cc12 [Compound 7],534^c nm,559^b nm,,,
Cc1cc(=O)n(CC(=O)O)c2cc(Nc3nc(NCCS(=O)(=O)O)nc(NCCS(=O)(=O)O)n3)ccc12 [Compound 115],,383^b nm,335^b nm,,
Cn1cc[n+](CCCCS(=O)(=O)O)c1C1=c2cc3c(cc2C(C)(C)c2cc4c(cc21)C(CS(=O)(=O)O)=CC(C)(C)N4CCS(=O)(=O)O)=[N+](CCCC(=O)O)C(C)(C)C=C3CS(=O)(=O)O [Compound 59],,771^b nm,739^b nm,,
CC[N+]1=c2cc3c(cc2C(CS(=O)(=O)O)=CC1(C)C)=C(c1ccc(C(=O)O)cc1)c1cc2c(cc1C3(C)C)N(Cc1ccc(S(=O)(=O)O)cc1S(=O)(=O)O)C(C)(C)C=C2CS(=O)(=O)O [Compound 64],,697^b nm,667^b nm,,
CC1(C)c2c(cc3c4c2CCCN4CCC3)C(c2c(F)c(F)c(SCC(=O)O)c(F)c2F)=c2cc3c(cc21)=[N+](Cc1ccc(S(=O)(=O)O)cc1S(=O)(=O)O)CCC3 [Compound 36],,677^b nm,656^b nm,,
Cn1cc[n+](CCCCS(=O)(=O)O)c1C1=c2cc3c(cc2C(C)(C)c2cc4c(cc21)C(CS(=O)(=O)O)=CC(C)(C)N4Cc1ccc(S(=O)(=O)O)cc1S(=O)(=O)O)=[N+](CCCC(=O)O)C(C)(C)C=C3CS(=O)(=O)O [Compound 60],,775^b nm,742^b nm,,
CCN(CS(=O)(=O)O)c1ccc2c(c1)[Si](C)(C)C1=C/C(=[N+](/CC)CS(=O)(=O)O)C=CC1=C2NCCS(=O)(=O)O [Compound 87],,605^b nm,472^b nm,,
CC1(C)c2c(cc3c4c2CCCN4CCC3)C(C#N)=c2cc3c(cc21)=[N+](Cc1ccc(S(=O)(=O)O)cc1S(=O)(=O)O)CCC3 [Compound 80],,761^b nm,739^b nm,,
CC[N+]1=c2cc3c(cc2C(CS(=O)(=O)O)=CC1(C)C)=C(c1c(F)c(F)c(SCC(=O)O)c(F)c1F)c1cc2c(cc1C3(C)C)N(Cc1ccc(S(=O)(=O)O)cc1S(=O)(=O)O)CCC2 [Compound 43],,704^b nm,684^b nm,,
Cc1cc(=O)[nH]c2cc(NCS(=O)(=O)O)ccc12 [Compound 105],,413 nm,349 nm,355,406
CC[N+]1=c2cc3c(cc2C(CS(=O)(=O)O)=CC1(C)C)=C(c1c(F)c(F)c(SCCS(=O)(=O)O)c(F)c1F)c1cc2c(cc1C3(C)C)N(Cc1ccc(S(=O)(=O)O)cc1S(=O)(=O)O)CCC2 [Compound 42],,701^b nm,682^b nm,,
Cc1cc(=O)n(CC(=O)O)c2cc(NCS(=O)(=O)O)c(S(=O)(=O)O)cc12 [Compound 108],,411^b nm,348^b nm,,
CC1(C)C=C(CS(=O)(=O)O)c2cc3c(cc2N1CCCC(=O)O)[Si](C)(C)c1cc2c(cc1=C3NCC(S(=O)(=O)O)S(=O)(=O)O)C(CS(=O)(=O)O)=CC(C)(C)[N+]=2CCS(=O)(=O)O [Compound 93],,695^b nm,516^b nm,,
